We go through eleven molecules from patent US11739098B2 (BRISTOL-MYERS SQUIBB COMPANY, priority 2017, dated 2023).

Bounds are passed on as bounds.

Format in all cases: cell-based
For one experiment, the target named is T1, human TLR7 (Homo sapiens, UniProt Q9NYK1).
T1 construct: host or cells: HEK-Blue cells (HEK293-derived reporter line)
T1 sequence (Q9NYK1 27-1049): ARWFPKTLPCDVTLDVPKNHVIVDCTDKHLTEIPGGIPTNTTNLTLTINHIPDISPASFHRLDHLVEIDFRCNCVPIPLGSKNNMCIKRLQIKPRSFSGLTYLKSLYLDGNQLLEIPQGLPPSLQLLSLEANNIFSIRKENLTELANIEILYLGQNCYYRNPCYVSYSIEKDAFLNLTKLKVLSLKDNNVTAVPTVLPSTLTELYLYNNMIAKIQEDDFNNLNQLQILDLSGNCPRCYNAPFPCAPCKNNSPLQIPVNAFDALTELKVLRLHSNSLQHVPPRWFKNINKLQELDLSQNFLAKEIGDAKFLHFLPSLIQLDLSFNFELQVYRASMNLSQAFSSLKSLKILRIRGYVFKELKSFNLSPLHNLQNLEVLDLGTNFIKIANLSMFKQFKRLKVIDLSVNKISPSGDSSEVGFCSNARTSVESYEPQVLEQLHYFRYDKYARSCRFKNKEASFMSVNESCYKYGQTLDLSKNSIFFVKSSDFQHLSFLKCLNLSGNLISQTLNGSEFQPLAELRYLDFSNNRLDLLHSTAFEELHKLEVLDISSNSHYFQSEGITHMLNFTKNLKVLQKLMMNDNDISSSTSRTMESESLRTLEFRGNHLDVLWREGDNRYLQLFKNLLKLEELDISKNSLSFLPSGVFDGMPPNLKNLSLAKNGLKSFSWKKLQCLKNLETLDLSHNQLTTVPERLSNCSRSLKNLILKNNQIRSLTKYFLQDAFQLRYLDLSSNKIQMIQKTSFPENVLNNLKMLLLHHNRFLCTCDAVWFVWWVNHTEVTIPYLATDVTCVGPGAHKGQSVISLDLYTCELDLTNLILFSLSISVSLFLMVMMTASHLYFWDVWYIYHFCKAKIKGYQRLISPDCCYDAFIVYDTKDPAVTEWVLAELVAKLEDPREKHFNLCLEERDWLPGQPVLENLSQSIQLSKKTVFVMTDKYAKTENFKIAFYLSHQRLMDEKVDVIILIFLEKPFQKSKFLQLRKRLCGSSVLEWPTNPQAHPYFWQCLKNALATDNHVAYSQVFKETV
Put plainly: TLR7 inhibition reporter assay (HEK-Blue cells, SEAP reporter, gardiquimod stimulation). Conditions: HEK-Blue cells overexpressing human TLR7, SEAP reporter, gardiquimod 7.5 μM. As for the experimental part:
(§1) TLR7/8/9 Inhibition Reporter Assays
(§2) HEK-Blue™-cells (Invivogen) overexpressing human TLR7, TLR8 or TLR9 receptors were used for screening inhibitors of these receptors using an inducible SEAP (secreted embryonic alkaline phosphatase) reporter gene under the control of the IFN-β minimal promoter fused to five NF-κB and AP-1-binding sites. Briefly, cells are seeded into Greiner 384 well plates (15000 cells per well for TLR7, 20,000 for TLR8 and 25,000 for TLR9) and then treated with test compounds in DMSO to yield a final dose response concentration range of 0.05 nM-50 μM. After a 30 minute compound pre-treatment at room temperature, the cells are then stimulated with a TLR7 ligand (gardiquimod at a final concentration of 7.5 μM), TLR8 ligand (R848 at a final concentration of 15.9 μM) or TLR9 ligand (ODN2006 at a final concentration of 5 nM) to activate NF-κB and AP-1 which induce the production of SLAP After a 22 hour incubation at […], SLAP levels are determined with the addition of HLK-Blue™ Detection reagent (Invivogen), a cell culture medium that allows for detection of SLAP, according to manufacturer's specifications. The percent inhibition is determined as the […] in the HEK-Blue signal present in wells treated with agonist plus DMSO alone compared to wells treated with a known inhibitor.
On the technique in general: In a reporter assay the amount or activity of a reporter protein is the signal.

Another experiment addresses T2, human TLR8 (Homo sapiens, UniProt Q9NR97).
T2 construct: host or cells: HEK-Blue cells (HEK293-derived reporter line)
T2 sequence (Q9NR97 27-1041): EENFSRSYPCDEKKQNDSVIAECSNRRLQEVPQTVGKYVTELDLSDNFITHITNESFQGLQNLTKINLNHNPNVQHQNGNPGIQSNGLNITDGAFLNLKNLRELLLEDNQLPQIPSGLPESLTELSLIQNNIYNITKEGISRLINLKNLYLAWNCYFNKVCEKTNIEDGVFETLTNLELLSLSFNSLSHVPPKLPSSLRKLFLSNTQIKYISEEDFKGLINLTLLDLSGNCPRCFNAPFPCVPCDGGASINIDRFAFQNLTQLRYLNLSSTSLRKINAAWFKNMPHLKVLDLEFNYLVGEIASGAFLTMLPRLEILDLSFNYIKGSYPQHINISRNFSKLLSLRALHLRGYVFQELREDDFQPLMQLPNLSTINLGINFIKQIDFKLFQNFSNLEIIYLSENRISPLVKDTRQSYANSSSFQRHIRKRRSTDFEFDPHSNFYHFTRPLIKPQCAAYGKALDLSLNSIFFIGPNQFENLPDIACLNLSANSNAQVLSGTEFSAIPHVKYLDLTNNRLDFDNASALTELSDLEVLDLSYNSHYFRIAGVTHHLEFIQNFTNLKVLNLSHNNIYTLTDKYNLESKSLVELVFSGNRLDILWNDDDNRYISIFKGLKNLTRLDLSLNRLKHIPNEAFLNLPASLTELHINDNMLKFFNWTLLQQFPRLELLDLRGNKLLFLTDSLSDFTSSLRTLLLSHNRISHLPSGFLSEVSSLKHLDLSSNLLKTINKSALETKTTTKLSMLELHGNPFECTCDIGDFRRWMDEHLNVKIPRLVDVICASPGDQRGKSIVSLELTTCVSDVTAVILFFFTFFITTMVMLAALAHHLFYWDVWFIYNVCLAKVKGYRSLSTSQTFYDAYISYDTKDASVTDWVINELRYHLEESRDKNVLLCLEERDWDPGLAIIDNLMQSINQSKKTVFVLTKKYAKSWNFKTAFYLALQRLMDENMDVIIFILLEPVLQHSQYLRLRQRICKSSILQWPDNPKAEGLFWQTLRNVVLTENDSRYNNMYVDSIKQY
Put plainly: TLR8 inhibition reporter assay (HEK-Blue cells, SEAP reporter, R848 stimulation). Conditions: HEK-Blue cells overexpressing human TLR8, SEAP reporter, R848 15.9 μM. As for the experimental part:
as §1, §2

Another experiment has as its target T3, human TLR9 (Homo sapiens, UniProt Q9NR96).
T3 construct: host or cells: HEK-Blue cells (HEK293-derived reporter line)
T3 sequence (Q9NR96 26-1032): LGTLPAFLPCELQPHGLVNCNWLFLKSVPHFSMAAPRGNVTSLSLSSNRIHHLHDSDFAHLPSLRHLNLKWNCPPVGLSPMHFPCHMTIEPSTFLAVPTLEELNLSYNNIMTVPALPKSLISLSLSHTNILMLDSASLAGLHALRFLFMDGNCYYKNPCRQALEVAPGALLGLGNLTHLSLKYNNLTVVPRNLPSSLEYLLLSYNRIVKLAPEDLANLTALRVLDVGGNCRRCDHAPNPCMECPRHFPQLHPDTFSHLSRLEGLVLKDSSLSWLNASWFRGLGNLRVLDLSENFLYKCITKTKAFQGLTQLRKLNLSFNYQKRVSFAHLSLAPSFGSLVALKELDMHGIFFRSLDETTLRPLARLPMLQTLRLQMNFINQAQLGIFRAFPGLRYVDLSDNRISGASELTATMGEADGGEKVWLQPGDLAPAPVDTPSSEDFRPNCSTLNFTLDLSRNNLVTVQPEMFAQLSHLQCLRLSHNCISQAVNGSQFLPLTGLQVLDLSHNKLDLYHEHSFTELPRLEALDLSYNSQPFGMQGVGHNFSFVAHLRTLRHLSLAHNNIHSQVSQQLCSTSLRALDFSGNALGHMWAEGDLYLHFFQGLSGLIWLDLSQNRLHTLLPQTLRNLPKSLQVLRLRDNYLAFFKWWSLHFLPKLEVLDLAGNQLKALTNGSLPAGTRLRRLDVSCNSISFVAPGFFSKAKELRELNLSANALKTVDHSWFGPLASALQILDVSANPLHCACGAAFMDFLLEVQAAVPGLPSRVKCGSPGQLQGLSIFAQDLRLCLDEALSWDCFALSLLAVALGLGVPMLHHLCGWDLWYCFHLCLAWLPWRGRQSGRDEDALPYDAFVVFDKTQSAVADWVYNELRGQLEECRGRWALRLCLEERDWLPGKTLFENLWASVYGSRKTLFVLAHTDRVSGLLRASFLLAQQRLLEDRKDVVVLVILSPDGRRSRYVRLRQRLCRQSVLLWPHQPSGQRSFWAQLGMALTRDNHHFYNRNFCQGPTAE
Put plainly: TLR9 inhibition reporter assay (HEK-Blue cells, SEAP reporter, ODN2006 stimulation). As to conditions: HEK-Blue cells overexpressing human TLR9, SEAP reporter, ODN2006 5 nM. As for the experimental part:
as §1, §2

On to `CCc1c(-c2ccnc3[nH]nc(C)c23)[nH]c2ccc(C3CCN(Cc4cnc[nH]4)CC3)cc12` [Example 873, 4-(5-(1-((1H-imidazol-5-yl)methyl)piperidin-4-yl)-3-ethyl-1H-indol-2-yl)-3-methyl-1H-pyrazolo[3,4-b]pyridine], for which the half-inhibitory concentration (IC50) against human TLR7 is < 100 nM; at human TLR8 it was < 100 nM; against human TLR9, 100 to 1000 nM.
In the case of `COc1ccc(CN2CCC(c3ccc4[nH]c(-c5ccc6nccn6c5)c(C(C)C)c4c3)CC2)cn1` [Example 935, 6-(3-isopropyl-5-(1-((6-methoxypyridin-3-yl)methyl)piperidin-4-yl)-1H-indol-2-yl)imidazo[1,2-a]pyridine], the 50% inhibitory concentration (IC50) was < 100 nM at human TLR7, < 100 nM on human TLR8 and 100 to 1000 nM against human TLR9.
For `CC(C)c1c(-c2ccnc3[nH]ccc23)[nH]c2ccc(C3CCN(C(=O)CN(C)C)CC3)cc12` [Example 564, 2-(dimethylamino)-1-(4-(3-isopropyl-2-(1H-pyrrolo[2,3-b]pyridin-4-yl)-1H-indol-5-yl)piperidin-1-yl)ethan-1-one], the IC50 is < 100 nM at human TLR7, < 100 nM on human TLR8 and 1000 to 50000 nM at human TLR9.
Turning to `CCc1c(-c2ccnc3[nH]ncc23)[nH]c2ccc(C3CCN(Cc4cncn4C)CC3)cc12` [Example 911, 4-(3-ethyl-5-(1-((1-methyl-1H-imidazol-5-yl)methyl)piperidin-4-yl)-1H-indol-2-yl)-1H-pyrazolo[3,4-b]pyridine], the figures for the 50% inhibitory concentration (IC50) on human TLR7, against human TLR8 and at human TLR9 were 100 to 1000 nM, < 100 nM and 1000 to 50000 nM, respectively.
Take `Cc1cc(-c2[nH]c3ccc(C4CCN(C(=O)CN(C)C)CC4)cc3c2C(C)C)cc2nccnc12` [Example 518, 2-(dimethylamino)-1-(4-(3-isopropyl-2-(8-methylquinoxalin-6-yl)-1H-indol-5-yl)piperidin-1-yl)ethan-1-one]: the 50% inhibitory concentration (IC50) is < 100 nM at human TLR7, < 100 nM against human TLR8 and 1000 to 50000 nM against human TLR9.
Regarding `Cc1cn2cc(-c3[nH]c4ccc(C5CCN(CC(=O)N(C)C)CC5)cc4c3C(C)C)cc(C(F)(F)F)c2n1` [Example 376, 2-(4-(3-isopropyl-2-(2-methyl-8-(trifluoromethyl)imidazo[1,2-a]pyridin-6-yl)-1H-indol-5-yl)piperidin-1-yl)-N,N-dimethylacetamide], the concentration for half-maximal inhibition (IC50) was < 100 nM on human TLR7, 100 to 1000 nM on human TLR8 and 100 to 1000 nM against human TLR9.
As for `CCN(CC)CCN1CCC(c2ccc3[nH]c(-c4ccnc5[nH]ncc45)c(C(C)C)c3c2)CC1` [Example 661, N,N-diethyl-2-(4-(3-isopropyl-2-(1H-pyrazolo[3,4-b]pyridin-4-yl)-1H-indol-5-yl)piperidin-1-yl)ethan-1-amine], the results for the IC50 at human TLR7, against human TLR8 and at human TLR9 were < 100 nM, < 100 nM and 100 to 1000 nM, respectively.
In the case of `Cc1cc(-c2[nH]c3ccc(C4CCN(C5COC5)CC4)cc3c2C(C)C)c2ccccc2n1` [Example 725, 4-(3-isopropyl-5-(1-(oxetan-3-yl)piperidin-4-yl)-1H-indol-2-yl)-2-methylquinoline], the IC50 at human TLR7 was < 100 nM; on human TLR8, 100 to 1000 nM; at human TLR9 it was 1000 to 50000 nM.
For `CC(C)c1c(-c2cc(Cl)c3ncccc3c2)[nH]c2ccc(C3CCN(CC(=O)N(C)C)CC3)cc12` [Example 380, 2-(4-(2-(8-chloroquinolin-6-yl)-3-isopropyl-1H-indol-5-yl)piperidin-1-yl)-N,N-dimethylacetamide], in that order: < 100 nM, < 100 nM and 1000 to 50000 nM.
As to `Cc1cc(-c2[nH]c3ccc(C4CCN(CCS(C)(=O)=O)CC4)cc3c2C(C)C)cn2nncc12` [Example 785, 6-(3-isopropyl-5-(1-(2-(methylsulfonyl)ethyl)piperidin-4-yl)-1H-indol-2-yl)-4-methyl-[1,2,3]triazolo[1,5-a]pyridine], the IC50 fell in the range of 1000 to 50000 nM on human TLR7, 100 to 1000 nM at human TLR8 and 1000 to 50000 nM at human TLR9.
Turning to `CC(C)c1c(-c2ccnc3[nH]ncc23)[nH]c2ccc(C3CCN(Cc4ccccc4OCCCN(C)C)CC3)cc12` [Example 921, 3-(2-((4-(3-isopropyl-2-(1H-pyrazolo[3,4-b]pyridin-4-yl)-1H-indol-5-yl)piperidin-1-yl)methyl)phenoxy)-N,N-dimethylpropan-1-amine], the concentration for half-maximal inhibition (IC50) on human TLR7 is 100 to 1000 nM; on human TLR8, < 100 nM; against human TLR9, 100 to 1000 nM.

As usually defined, the IC50 is the point on the concentration scale where inhibition reaches its midpoint. Lower therefore signals greater potency in that assay.
